Holding throughout (type): functional
For assay [1], the species on record is Cavia porcellus. Kind of assay: In vitro for smooth muscle calcium channel antagonist activity. The note with it: Muscle tissue.
The species entered for assay [2] is Cavia porcellus. The experiment in a line: In vitro for cardiac calcium channel (CC) agonist activity; Active. The note with it: read-out: ED50 (the source's name).
For assay [3], the species on record is Cavia porcellus. Kind of assay: In vitro cardiac calcium channel (CC) agonist activity. The note with it: read-out: ED50 (the source's name).
For assay [4], the species on record is Cavia porcellus. The experiment in a line: In vitro release of nitric oxide by nitrite quantitation in the presence of N-acetyl-cysteamine by Griess reaction. A general note: Griess reagent forms a coloured azo dye with nitrite.
Assay [5] is filed under the species Cavia porcellus. Kind of assay: In vitro release of nitric oxide by nitrite quantitation in the absence of N-acetyl-cysteamine by Griess reaction.

Each structure is given as a SMILES string.

As for `CO/C(O)=C1\C(C)=NC(C)=C([N+](=O)[O-])[C@H]1c1ccccc1C(F)(F)F`, in the assay filed under Cavia porcellus [1], the IC50 was determined as 16 µM. The EC50 in the assay filed under Cavia porcellus [2] is 920 nM.
Take `CC1=NC(C)=C([N+](=O)[O-])[C@@H](c2ccccc2C(F)(F)F)/C1=C(\O)OCCO[N+](=O)[O-]`: the IC50 in the assay listed under Cavia porcellus [1] was 16 µM. The EC50 in the assay filed under Cavia porcellus [3] is 0.92 µM.
On to `CC1=NC(C)=C([N+](=O)[O-])[C@H](c2ccccc2C(F)(F)F)/C1=C(\O)OCCO[N+](=O)[O-]`, for which the IC50 in the assay listed under Cavia porcellus [1] was 0.079 µM. In addition, the EC50 in the assay listed under Cavia porcellus [3] was found to be 16 µM.
On to `CC1=NC(C)=C([N+](=O)[O-])C(c2ccccc2C(F)(F)F)/C1=C(\O)OCCO[N+](=O)[O-]` (stereo not given), for which the Release in the assay listed under Cavia porcellus [4] amounted to 2.7%; in the assay filed under Cavia porcellus [5], 1.09%.
For the compound `O=[N+]([O-])OCC(CO[N+](=O)[O-])O[N+](=O)[O-]` [NITROGLYCERIN], the figures for the Release in the assay filed under Cavia porcellus [4] and in the assay listed under Cavia porcellus [5] were 5.3% and 0.18%, respectively.

One may read the IC50 as the midpoint of a concentration-inhibition curve.
